The values below are quoted from earlier work in patent US20140023718A1, “PROSTAGLANDIN-CONTAINING FAT EMULSION” (FUJIFILM Corporation, priority 2011, published 2014).

For this series the following is noted: 25° C. water.

For the molecule `CCCC(=O)O` [butyric acid], the pKa (as a rule, the negative logarithm of the acid dissociation constant) is reported as 4.63.
Turning to `O=C(O)CC(O)C(=O)O` (centres unmarked) [malic acid], the pKa1 was 3.40 and the pKa2 was 5.13.
Regarding `O=C(O)CCC(=O)O` [succinic acid], the pKa1 is on record as 4.00 and the pKa2 is recorded as 5.24.
